The values below come from patent US6413974B1, “6,9,-disubstituted 2-[trans-(4-aminocyclohexyl) amino] purines” (Aventis Pharmaceuticals Inc., priority 1998, dated 2002).

In assay [1] the target is T1, cdk2/cyclin E (Homo sapiens, UniProt P24941).
T1 construct: made in house; host or cells: insect cells (baculovirus co-infection)
Briefly: Cyclin-Dependent Kinase 2 Assay (cdk-2 inhibition). In kind it is biochemical. Particulars: GST-Rb substrate, 30 min at 30° C. On the procedure: (§1) The transformed bacteria were grown overnight to saturation, then diluted in YT broth and incubated at 37° C. for 2 h. The protein was induced by incubation with 0.1 mM isopropylthioglycoside for 3 h. Following sedimentation by centrifugation, the cells were lysed by sonication in STE buffer ([…] NaCl, 10 mM Tris, pH 8.0, 1 mM EDTA) containing 10% sarkosyl. Particulate matter was removed by centrifugation and the lysate was incubated with glutathione-Sepharose at 4° C. The beads were washed with kinase buffer and then quantitation of Coomassie blue-stained proteins separated by SDS-PAGE was performed using a protein standard of known concentration.
(§2) Pre-wet Millipore Multiscreen 96-well filter plates (0.65 μm Durapore filters) with 200 μl kinase buffer (50 mM HEPES, pH 7.5, 10 mM MgCl2, 1 mM EGTA). GST-Rb (0.5 μg) bound to glutathione-Sepharose beads is added in 50 μl per well and the solution removed by application of vacuum. […] Add 0.1 μg cdk4/cyclin D1 (insect cell lysate) to initiate assay. Incubate 30 min at 37° C. Terminate reaction by filtration on Millipore Vacuum Manifold. Wash four times with TNEN (20 mM Tris, pH 8.0, 100 mM Na Cl, 1 mM EDTA, 0.5% nonidet P-40). After drying the plates at room temperature, the filter plates were placed in adapter plates (Packard) and 40 μl of Microscint-O® (Packard) was added to each well. Top Seal A film was used to cover the plates before counting in a Top Count Scintillation Counter.
GST-Rb as described above for cdk4/cyclin D1
Assay conditions for cdk2/cyclin E were identical to those for cdk4/cyclin D1 including the substrate. The concentration of recombinant cdk2/cyclin E in the assay was 0.1 μg per 100 μl assay. Incubation was for 30 min at 30° C.

Assay [2] concerns the target T2, cdk4/cyclin D1 (Homo sapiens, UniProt P11802).
T2 construct: made in house; host or cells: Sf9 insect cells (Bac-to-Bac baculovirus, pFastBac)
Briefly: Cyclin-dependent kinase 4 Assay. The conditions noted are these: cdk4/cyclin D1, GST-Rb substrate, 10 μM ATP, 30 min at 37° C.; read-out: CDK4 Inhibition IC50. In kind it is biochemical. On the procedure: The IC50 values for cdk-4 inhibition were by the following method:
as §1
The cDNA for human cyclin D1 was cloned by RT PCR using […] from MCF-7 cells. […] Bacmid DNA was used to transfect Sf9 insect cells to produce recombinant virus. Following plaque purification of the virus, the viral preparations were amplified until high titer stocks were acheived.
Lysates were prepared by lysis of Sf9 cells coinfected with cdk4 and cyclin D1 in 50 mM HEPES, pH 7.5, 10 mM MgCl2, 1 mM DTT, 0.1 mM phenylmethylsulfonyl fluoride, 5 μg/ml aprotinin, and 5 μg/ml leupeptin using a PARR bomb under 500 p.s.i nitrogen pressure for 5 min at 4° C. Insoluble material was sedimented at 10,000×g for 20 min at 4° C. Glycerol was added to the supernatant to 10% and stored at −80° C. in aliquots.
as §2

For assay [3], the system named is DMS-114. Briefly: In vitro tumor cell proliferation, DMS-114. In kind it is cell-based, human. Particulars: read-out: In vitro Tumor Cell Proliferation (IC50, μM) Lung DMS-114. On the procedure: (§3) The proliferation of tumor cells was measured using a sulforhodamine B assay as described in Skehan, P., et al., J. Natl. Cancer Inst. […] Tumor cells were harvested with trypsin-EDTA, cells that excluded trypan blue were counted, added to 96-well plates and incubated overnight at 37° C. Drug was added to the wells following dilution in culture medium. Three days later, the medium was removed and replenished with medium containing fresh drug and incubated an additional 4 days. The cells were then fixed with 0.1 ml 10% trichloroacetic acid for 60 min at 4° C. The plates were rinsed five times with tap water, air-dried and stained for 30 min with 0.4% sulforhodamine B in 1% acetic acid and air-dried.
(§4) Alternatively, the CyQUANT cell proliferation assay was used to quantify tumor cell proliferation. Tumor cells were harvested with trypsin-EDTA, cells that excluded trypan blue were counted, added to 96-well plates and incubated overnight at 37° C. Drug was added to the wells following dilution in culture medium. Three days later the medium was removed and the plates frozen at −80° C. for at least 30 minutes.

The subject of assay [4] is HT-29. Briefly: In vitro tumor cell proliferation, HT-29. In kind it is cell-based, human. The conditions noted are these: read-out: In vitro Tumor Cell Proliferation (IC50, μM) Colon HT-29 (converted). On the procedure:
as §3, §4
HT-29 is a human colon adenocarcinoma, moderately well-differentiated grade II (HTB 38);

Assay [5] deals with DU 145. The experiment in a line: In vitro tumor cell proliferation, DU 145. The assay is classed as cell-based, human. Particulars: read-out: In vitro Tumor Cell Proliferation (IC50, μM) Prostate DUI45. On the procedure:
as §3, §4

The subject of assay [6] is MDA-MB-231. Briefly: In vitro tumor cell proliferation, MDA-MB-231. In kind it is cell-based, human. The conditions noted are these: read-out: In vitro Tumor Cell Proliferation (IC50, μM) Breast MDA-MB-231. On the procedure:
as §3, §4

Assay [7] has as its system Colo-205. The experiment in a line: In vitro tumor cell proliferation, Colo-205. In kind it is cell-based, human. The conditions noted are these: read-out: In vitro Tumor Cell Proliferation (IC50, μM) Colon Colo-205. On the procedure:
as §3, §4

Assay [8] deals with A549. The experiment in a line: In vitro tumor cell proliferation, A549. The assay is classed as cell-based, human. The conditions noted are these: read-out: In vitro Tumor Cell Proliferation (IC50, μM) Lung A549. On the procedure:
as §3, §4

Assay [9] has as its system PC-3. Briefly: In vitro tumor cell proliferation, PC-3. In kind it is cell-based, human. Particulars: read-out: In vitro Tumor Cell Proliferation (IC50, μM) Prostate PC-3. On the procedure: as §3, §4
The mark [10] stands for this setting: Homo sapiens, DMS-114, values marked * (mark not explained).
The mark [11] stands for this setting: values marked * (mark not explained), trihydrochloride.
Setting [12] is: Homo sapiens, HT-29, values marked * (mark not explained).
[13] abbreviates: Homo sapiens, DU-145, values marked * (mark not explained).
[14] abbreviates: Homo sapiens, MDA-MB-231, values marked * (mark not explained).
The mark [15] stands for this setting: Homo sapiens, COLO 205, values marked * (mark not explained).
[16] abbreviates: Homo sapiens, A549, values marked * (mark not explained).
Setting [17] is: Homo sapiens, PC-3, values marked * (mark not explained).
The mark [18] stands for this setting: values marked * (mark not explained), dihydrochloride.
The mark [19] stands for this setting: values without *, dihydrochloride.

Values joined by “and” are separate entries in the source; they are usually repeats but may differ in a detail not shown here. Equal values may be shown once. Where a name gives a salt, the structure may show the parent alone. Read-outs that look alike come from different tables or passages of the source.

T2 sequence (P11802 whole entry): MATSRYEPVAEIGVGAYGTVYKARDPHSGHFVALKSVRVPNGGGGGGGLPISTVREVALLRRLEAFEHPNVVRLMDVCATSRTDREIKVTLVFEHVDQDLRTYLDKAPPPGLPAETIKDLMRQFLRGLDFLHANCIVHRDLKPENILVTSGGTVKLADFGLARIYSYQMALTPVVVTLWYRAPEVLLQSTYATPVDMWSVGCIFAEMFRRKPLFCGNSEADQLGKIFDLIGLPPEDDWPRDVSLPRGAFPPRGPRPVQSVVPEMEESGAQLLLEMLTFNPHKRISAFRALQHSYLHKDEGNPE
T2 sequence (P24385 whole entry partner): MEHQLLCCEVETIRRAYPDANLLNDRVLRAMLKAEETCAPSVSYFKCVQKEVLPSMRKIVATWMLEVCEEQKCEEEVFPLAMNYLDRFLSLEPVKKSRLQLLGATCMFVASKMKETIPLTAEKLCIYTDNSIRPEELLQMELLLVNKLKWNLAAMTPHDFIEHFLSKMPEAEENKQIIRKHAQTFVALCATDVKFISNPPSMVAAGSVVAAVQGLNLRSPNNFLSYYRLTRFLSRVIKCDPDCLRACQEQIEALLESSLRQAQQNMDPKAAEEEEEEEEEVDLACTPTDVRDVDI

For the molecule `N[C@H]1CC[C@H](Nc2nc(NCCc3ccc4c(c3)OCO4)c3ncn(C4CCCC4)c3n2)CC1` [Example 4, 2-[Trans-(4-aminocyclohexyl)amino]-6-[2-(3,4-methylenedioxyphenyl)ethylamino]-9-cyclopentylpurine dihydrochloride], the values for the IC50 in assay [1] and in assay [2] were 5.1 µM and over 100 µM, respectively.

Regarding `C[C@H](Nc1nc(N[C@H]2CC[C@H](N)CC2)nc2c1ncn2C1CCCC1)c1ccccc1` [Example 6, (S)-2-[Trans-(4-aminocyclohexyl)amino]-6-[(α-methylbenzyl)amino]-9-cyclopentylpurine dihydrochloride], the IC50 in assay [1] is 2.6 µM; in [2] it was over 100 µM.

Take `N[C@H]1CC[C@H](Nc2nc(NCCN3CCOCC3)c3ncn(C4CCCC4)c3n2)CC1` [Example 13, 2-[Trans-(4-aminocyclohexyl)amino]-6-[2-(4-morpholinyl)ethylamino]-9-cyclopentylpurine trihydrochloride]: the IC50 in assay [1] is 0.11 µM; in [3] (setting [10]), 8.8 µM; in [3] (setting [11]), 6.2 µM; in assay [4] (setting [12]), 11 µM; in assay [5] (setting [13]), 6.7 µM; in assay [5] (setting [11]), 7.5 µM. Also, the IC50 in assay [6] (setting [14]) is 4.8 µM; in [6] (setting [11]), 9.4 µM; in [2], 3.2 µM and 4.2 µM; in assay [7] (setting [15]), 5.3 µM; in assay [7] (setting [11]), 5.2 µM; in assay [8] (setting [16]), 7.9 µM. Further, the IC50 in assay [8] (setting [11]) is 6.9 µM; in assay [9] (setting [17]), 7.2 µM; in assay [9] (setting [11]), 6.4 µM.

In the case of `CC(C)n1cnc2c(NCc3cccc(Cl)c3)nc(N[C@H]3CC[C@H](N)CC3)nc21` [Example 15, 2-[Trans-(4-aminocyclohexyl)amino]-6-[(3-chloro)benzylamino]-9-(2-propyl)purine dihydrochloride], the IC50 in assay [1] was 0.1 µM; in assay [3] (setting [10]), 1.3 µM; in [4] (setting [12]), 2.7 µM; in assay [5] (setting [13]) it was 2.8 µM; in assay [6] (setting [14]), 3 µM; in assay [2] it was 1.5 µM. Further, the IC50 was determined as 2.4 µM in [7] (setting [15]), 1.4 µM in assay [8] (setting [16]) and 2.3 µM in assay [9] (setting [17]).

In the case of `CCNc1nc(N[C@H]2CC[C@H](N)CC2)nc2c1ncn2C1CCCC1` [Example 33, 2-[Trans-(4-aminocyclohexyl)amino]-6-(ethylamino)-9-cyclopentylpurine dihydrochloride], the IC50 is 0.014 µM and 0.026 µM and 0.006 µM in assay [1]; 0.7 µM in assay [3] (setting [10]); 0.9 µM in assay [3] (setting [18]); 1.5 µM in assay [4] (setting [12]); 2.1 µM in [4] (setting [18]); 0.8 µM in assay [5] (setting [13]). In addition, the IC50 was found to be 0.18 µM in assay [2]; 2.1 µM in assay [7] (setting [15]); 1.2 µM in [8] (setting [16]); 1.8 µM in assay [8] (setting [18]); 0.9 µM in [9] (setting [17]); 1 µM in [9] (setting [18]).

Take `N[C@H]1CC[C@H](Nc2nc(NCc3ccco3)c3ncn(C4CCCC4)c3n2)CC1` [Example 38, 2-[Trans-(4-aminocyclohexyl)amino]-6-(2-furanmethylamino)-9-cyclopentylpurine dihydrochloride]: the IC50 in [1] is 0.019 µM; in [3] (setting [10]), 1.2 µM; in assay [4] (setting [12]), 2.1 µM; in assay [4] (setting [18]), 3.6 µM; in [2], 1.4 µM; in assay [7] (setting [15]) it was 2.4 µM. The IC50 turned out to be 2.8 µM in assay [7] (setting [18]); 1.7 µM in assay [8] (setting [16]); 1.1 µM in assay [8] (setting [18]); 1.4 µM in assay [9] (setting [17]); 1.7 µM in assay [9] (setting [18]).

With `N[C@H]1CC[C@H](Nc2nc(NCc3ccccc3F)c3ncn(C4CCCC4)c3n2)CC1` [Example 42, 2-[Trans-(4-aminocyclohexyl)amino]-6-[(2-fluorobenzyl)amino]-9-cyclopentylpurine dihydrochloride], the IC50 was 0.42 µM in assay [1]; 10 µM in [3] (Homo sapiens, DMS-114, values without *); 5.1 µM in assay [3] (setting [19]); 15 µM in assay [4] (Homo sapiens, HT-29, values without *); 7.3 µM in [5] (Homo sapiens, DU-145, values without *); 16 µM in assay [6] (Homo sapiens, MDA-MB-231, values without *). In addition, the IC50 in assay [6] (setting [19]) is 17 µM; in assay [2], 1 µM and 6 µM; in assay [8] (Homo sapiens, A549, values without *), 7.1 µM; in [9] (Homo sapiens, PC-3, values without *), 8.8 µM; in assay [9] (setting [19]), 7.1 µM.

Turning to `CC(C)n1cnc2c(NCc3cccc(I)c3)nc(N[C@H]3CC[C@H](N)CC3)nc21` [Example 51, 2-[Trans-(4-aminocyclohexyl)amino]-6-[(3-iodobenzyl)amino]-9-(2-propyl)purine dihydrochloride], the IC50 in assay [1] came out at 0.78 µM; in [2], 2.1 µM.
